Measurements: patent publication US9487489B2, “Halogen-substituted pyrazole derivatives as pest-control agents” (BAYER CROPSCIENCE AKTIENGESELLSCHAFT, priority 2013, dated 2016)

Experiments:
[1] = test system: larvae of the mustard beetle (Phaedon cochleariae); experiment: Phaedon cochleariae spray test (PHAECO); format: in vivo; details: Chinese cabbage leaf discs, after 7 days
Summary of the method: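 Compound dissolved in acetone/dimethylformamide with alkylaryl polyglycol ether emulsifier, made up in water containing 1000 ppm emulsifier, then diluted to test concentrations and sprayed against mustard beetle larvae. Efficacy (% larvae killed) scored after 7 days.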

[2] = test system: Tick nymphs (Amblyomma hebraeum); experiment: Amblyomma hebraeum test (AMBYHE), tick nymphs immersed; format: in vivo; details: application rate 100 ppm; immersed one minute; after 42 days
Experimental: A. Amblyomma hebaraeum Test (AMBYHE)
(§1) Solvent: dimethyl sulphoxide
To produce a suitable preparation of active compound, 10 mg of active compound are mixed with 0.5 ml of dimethyl sulfoxide, and the concentrate is diluted with water to the desired concentration.
Tick nymphs (Amblyomma hebraeum) are placed into perforated plastic beakers and immersed in the desired concentration for one minute. The ticks are transferred on filter paper into a Petri dish and stored in a climate-controlled cabinet.
After 42 days, the kill in % is determined. 100% means that all of the ticks have been killed; 0% means that none of the ticks have been killed.

[3] = test system: adult dog ticks (Rhipicephalus sanguineus); experiment: Rhipicephalus sanguineus in vitro contact test with adult brown dog ticks (T2); details: after 48 h
Summary of the method: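 Acetone solutions coated onto test tube walls and floor, giving 5 μg/cm^2 at 900 ppm. Five to ten adult ticks held per tube in the dark at room temperature for 48 h, then heated at 45-50° C for up to 5 min; efficacy is the percentage of dead or moribund ticks unable to climb away.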

[4] = test system: L1 larvae of the Australian sheep blowfly (Lucilia cuprina); experiment: Lucilia cuprina test (LUCICU); format: in vivo; details: application rate 100 ppm; after 2 days
Summary of the method: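 About 20 L1 larvae placed in a vessel with minced horsemeat plus compound (DMSO concentrate diluted with water to the desired concentration). Kill in % scored after 2 days, 100% meaning all larvae dead.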

[5] = test system: adult cat fleas (Ctenocephalides felis); experiment: Ctenocephalides felis oral test (CTECFE); format: in vivo; details: application rate 100 ppm in citrated cattle blood; after 2 days
Summary of the method: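 About 20 unfed adult cat fleas fed through parafilm membrane on citrated cattle blood containing compound (DMSO stock diluted in blood to test concentration). Kill % scored after 2 days (100% = all fleas dead).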

[6] = test system: bont tick nymphs (Amblyomma hebraeum); details: after 48 h
[7] = test system: engorged adult female cattle ticks (Boophilus microplus); experiment: Boophilus microplus injection test (BOOPMI Inj); format: in vivo; details: application rate 20 μg/animal; injection into abdomen; assessed after 7 days
Summary of the method: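 DMSO solution of compound (1 μl) injected into the abdomen of 5 engorged adult female ticks, which are then held in a climate-controlled room. After 7 days, efficacy is scored from laying of fertile eggs, with unclear eggs kept until larval hatch (~42 days); 100% means no fertile eggs, 0% all fertile.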

[8] = test system: green peach aphid (Myzus persicae); experiment: Myzus persicae spray test (MYZUPE); format: in vivo; details: Chinese cabbage leaf discs, after 6 days
Summary of the method: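 Chinese cabbage leaf discs infested with all aphid stages sprayed with compound in acetone/DMF with alkylaryl polyglycol ether emulsifier in water. Efficacy (% aphids killed; 100% all dead, 0% none) scored after 6 days.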

[9] = test system: larvae of the red stomach worm (Haemonchus contortus); experiment: Haemonchus contortus test (HAEMCO); format: in vivo; details: application rate 20 ppm; after 5 days
Experimental: T8. Haemonchus contortus-test (HAEMCO)
as §1
To produce a suitable preparation of active compound, 10 mg of active compound are mixed with 0.5 ml of dimethyl sulphoxide, and the concentrate is diluted with “Ringer solution” to the desired concentration.
Vessels containing the active compound preparation of the desired concentration are populated with about 40 larvae of the red stomach worm (Haemonchus contortus).
After 5 days, the kill in % is determined 100% means that all of the larvae have been killed; 0% means that none of the larvae have been killed.

| SMILES | efficacy in % ([1]; application rate 100 g/ha) | efficacy (kill in %) [2] | efficacy (dead or moribund ticks) ([3]; application rate 1 μg/cm^2) | efficacy (dead or moribund ticks) ([3]; application rate 5 μg/cm^2) | efficacy (kill in %) [4] | efficacy (kill in %) [5] | efficacy (dead or moribund ticks) [6] | efficacy (laying of fertile eggs) [7] | efficacy in % ([1]; application rate 500 g/ha) | efficacy in % ([8]; application rate 500 g/ha) | efficacy in % ([8]; application rate 100 g/ha) | efficacy (kill in %) [9] |
| --- | --- | --- | --- | --- | --- | --- | --- | --- | --- | --- | --- | --- |
| Cn1nc(C(F)(F)C(F)(F)F)c(C(F)(F)F)c1-n1ccc(-c2ccc(Cl)c(C(=O)NC3CC3)c2)c1 [Ia-2] | 100% | 100% | 100% | 100% | 100% | 100% | 100% | 100% | – | – | – | – |
| Cn1nc(C(F)(F)C(F)(F)F)c(C(F)(F)F)c1-n1cc(-c2cc(Cl)c(Cl)c(C(=O)NC3CC3)c2)cn1 [Ic-94] | – | 100% | 100% | 100% | 100% | 100% | 100% | 100% | 100% | 100% | – | – |
| Cn1nc(C(F)(F)C(F)(F)F)c(C(F)(F)F)c1-n1cc(-c2ccc(Cl)c(C(=O)NCC(F)(F)F)c2)cn1 [Ic-23] | 100% | 100% | 100% | 100% | 100% | 100% | 100% | 100% | – | – | – | – |
| Cn1nc(C(F)(F)C(F)(F)F)c(C(F)(F)F)c1-n1cc(-c2ccc(Cl)c(C(=O)NC3CC3F)c2)cn1 (centres unmarked) [Ic-81] | 100% | – | 100% | 100% | 100% | 100% | 100% | 100% | – | – | 90% | – |
| CCn1nc(C(F)(F)C(F)(F)F)c(C(F)(F)F)c1-n1cc(-c2ccc(Cl)c(C(=O)NC3CC3)c2)cn1 [Ic-16] | 100% | 100% | 100% | 100% | 100% | 100% | 100% | 100% | – | – | – | 80% |
| Cn1nc(C(F)(F)C(F)(F)F)c(C(F)(F)F)c1-n1cc(-c2ccc(F)c(C(=O)NC3CC3)c2)cn1 [Ic-37] | 100% | 100% | 100% | 100% | 100% | 100% | 100% | 100% | – | – | – | – |
| CN(C(=O)c1cc(-c2cnn(-c3c(C(F)(F)F)c(C(F)(F)C(F)(F)F)nn3C)c2)ccc1Cl)C1(C#N)CC1 [Ic-96] | 100% | – | 100% | 100% | 100% | 100% | – | 100% | – | – | 100% | – |
| Cn1nc(C(F)(F)C(F)(F)F)c(C(F)(F)F)c1-n1cc(-c2ccc(Cl)c(C(=O)NC3(C(N)=S)CC3)c2)cn1 [Ic-11] | 100% | 100% | 100% | 100% | 100% | 100% | 100% | 100% | – | – | 100% | – |
| Cn1nc(C(F)(F)C(F)(F)F)c(C(F)(F)F)c1-n1cc(-c2ccc(Br)c(C(=O)NC3(C#N)CC3)c2)cn1 [Ic-34] | 100% | 100% | 80% | 100% | 100% | 100% | – | 100% | – | – | 90% | – |
